pIC50: −log10 of the molar value. Starred links: 1 amine or outer side, 2 acyl side, 3 side chain; linkers in the order of their positions; H or OH if unused. Positions of bridges follow the written chain, without caps; N, C: chain ends. Non-standard residues stand in square brackets, D forms with d. Residues, ends and D or L forms follow the SMILES beside them. Ala(1H-tetrazol-5-yl) = N[C@@H](Cc1nnn[nH]1)C(=O)O; Trp(7-aza) = N[C@@H](Cc1c[nH]c2ncccc12)C(=O)O; Phe(3-Cl) = N[C@@H](Cc1cccc(Cl)c1)C(=O)O; mXylylene = c1cc(C[*:1])cc(C[*:2])c1; Phg = N[C@H](C(=O)O)c1ccccc1; Tle = CC(C)(C)[C@H](N)C(=O)O; NMeS = CN[C@@H](CO)C(=O)O; Nva = CCC[C@H](N)C(=O)O
Target: C5 (Homo sapiens, UniProt P01031)
Experiment: Human hemolysis assay (RBC lysis assay using complete human sera)
Type: cell-based
Set-up: with complete human sera (Complement Technology, Tyler Tex.) and polypeptides; tissue Complement Technology, Tyler Tex; host or cells: complete human serum
Settings: for ability to inhibit red blood cell lysis compared with the parent polypeptide (in words): variants of R3021, R3002 or R3008
[1] = inhibition of lysis of antibody-sensitized sheep erythrocytes, complete human sera
[2] = variants of R3021 with internal amino acid deletions, inhibition of red blood cell lysis
[3] = 7-azatryptophan variant polypeptides of R3002, inhibition of red blood cell lysis
[4] = 7-azatryptophan variant polypeptides of R3008, inhibition of red blood cell lysis

C5, sequence (P01031 19-1676): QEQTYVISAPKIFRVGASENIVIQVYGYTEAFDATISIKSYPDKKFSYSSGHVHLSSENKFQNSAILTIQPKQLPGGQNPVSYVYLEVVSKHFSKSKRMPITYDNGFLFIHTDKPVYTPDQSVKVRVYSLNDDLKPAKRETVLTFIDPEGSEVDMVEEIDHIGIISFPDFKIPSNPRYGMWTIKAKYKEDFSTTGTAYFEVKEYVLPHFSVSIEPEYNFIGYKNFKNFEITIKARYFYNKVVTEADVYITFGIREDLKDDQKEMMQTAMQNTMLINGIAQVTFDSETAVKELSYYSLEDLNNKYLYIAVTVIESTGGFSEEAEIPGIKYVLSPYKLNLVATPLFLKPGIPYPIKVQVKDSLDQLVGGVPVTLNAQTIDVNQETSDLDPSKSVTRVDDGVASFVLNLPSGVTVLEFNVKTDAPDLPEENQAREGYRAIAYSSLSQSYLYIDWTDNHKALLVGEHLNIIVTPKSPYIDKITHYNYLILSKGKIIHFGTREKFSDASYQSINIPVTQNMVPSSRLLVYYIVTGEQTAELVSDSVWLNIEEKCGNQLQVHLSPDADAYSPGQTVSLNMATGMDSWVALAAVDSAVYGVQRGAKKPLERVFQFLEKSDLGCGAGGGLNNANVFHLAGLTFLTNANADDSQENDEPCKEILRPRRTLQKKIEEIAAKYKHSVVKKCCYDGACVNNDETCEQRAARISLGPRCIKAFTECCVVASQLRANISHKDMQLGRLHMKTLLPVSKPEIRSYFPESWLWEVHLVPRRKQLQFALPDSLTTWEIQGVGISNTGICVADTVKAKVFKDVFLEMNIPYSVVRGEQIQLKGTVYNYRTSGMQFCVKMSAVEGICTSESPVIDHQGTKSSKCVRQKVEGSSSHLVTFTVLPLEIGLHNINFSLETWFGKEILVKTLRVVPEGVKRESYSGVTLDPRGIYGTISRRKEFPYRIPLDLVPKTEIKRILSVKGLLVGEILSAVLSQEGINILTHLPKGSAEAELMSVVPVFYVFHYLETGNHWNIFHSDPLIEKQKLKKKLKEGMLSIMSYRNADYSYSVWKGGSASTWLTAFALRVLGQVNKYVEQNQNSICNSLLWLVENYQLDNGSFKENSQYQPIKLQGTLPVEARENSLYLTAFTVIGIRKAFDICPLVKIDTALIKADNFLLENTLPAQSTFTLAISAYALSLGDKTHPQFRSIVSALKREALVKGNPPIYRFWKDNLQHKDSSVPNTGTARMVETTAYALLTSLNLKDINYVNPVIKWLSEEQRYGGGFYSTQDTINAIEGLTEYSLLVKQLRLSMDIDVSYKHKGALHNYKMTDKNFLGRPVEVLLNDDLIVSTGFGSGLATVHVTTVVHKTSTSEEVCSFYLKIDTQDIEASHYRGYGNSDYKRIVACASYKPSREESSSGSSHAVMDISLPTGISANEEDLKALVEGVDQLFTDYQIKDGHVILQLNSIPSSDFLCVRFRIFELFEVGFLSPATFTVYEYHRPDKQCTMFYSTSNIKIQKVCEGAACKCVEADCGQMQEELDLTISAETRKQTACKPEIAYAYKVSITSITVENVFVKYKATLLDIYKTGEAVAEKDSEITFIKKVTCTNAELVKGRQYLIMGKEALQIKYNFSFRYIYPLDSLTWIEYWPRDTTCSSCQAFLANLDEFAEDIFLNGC

| SMILES | pIC50 [1] | also measured |
| --- | --- | --- |
| CC(=O)N[C@H]1CSCc2cccc(c2)CSC[C@@H](C(=O)N[C@H](C(=O)N[C@@H](Cc2ccc(O)cc2)C(=O)N[C@@H](Cc2c[nH]c3ccccc23)C(=O)N[C@@H](CCC(=O)O)C(=O)N[C@@H](Cc2ccccc2)C(N)=O)C(C)C)NC(=O)[C@H](Cc2ccccc2)NC(=O)[C@H](CCCNC(=N)N)NC(=O)[C@H](CCC(=O)O)NC(=O)[C@H](C(C)C)NC1=O [Compound R3124, [mXylyl(1,6)]Ac-C-V-E-R-F-C-V-Y-W-E-F-NH2] (Ac-CVERFCVYWEF-NH2; linker 1-6 via mXylylene) | < 4.00 | ability to inhibit red blood cell lysis compared with the parent polypeptide (in words): decrease in the ability; pIC50 [2]: < 4.00 |
| CC(=O)N[C@H]1CSCc2cccc(c2)CSC[C@@H](C(=O)N[C@@H](Cc2c[nH]c3ccccc23)C(=O)N[C@@H](CCC(=O)O)C(=O)N[C@@H](Cc2ccccc2)C(N)=O)NC(=O)[C@H](Cc2ccccc2)NC(=O)[C@H](CCCNC(=N)N)NC(=O)[C@H](CCC(=O)O)NC(=O)[C@H](C(C)C)NC1=O [Compound R3125, [mXylyl(1,6)]Ac-C-V-E-R-F-C-W-E-F-NH2] (Ac-CVERFCWEF-NH2; linker 1-6 via mXylylene) | < 4.00 | ability to inhibit red blood cell lysis compared with the parent polypeptide (in words): decrease in the ability; pIC50 [2]: < 4.00 |
| CCC[C@H](NC(C)=O)C(=O)N[C@@H](CS)C(=O)N[C@@H](Cc1ccc(O)cc1)C(=O)N[C@@H](CC(N)=O)C(=O)N[C@@H](CC(N)=O)C(=O)N[C@H](C(=O)N[C@@H](CCC(=O)O)C(=O)N[C@@H](Cc1c[nH]c2ncccc12)C(=O)N[C@@H](CCC(=O)O)C(=O)N[C@@H](CS)C(=O)N1CCC[C@H]1C(=O)N[C@H](C(=O)N[C@H](C(N)=O)C(C)(C)C)c1ccccc1)C(C)(C)C [Compound R3126, Ac-Nvl-C-Y-N-N-Tbg-E-azaTrp-E-C-P-Phg-Tbg-NH2] (Ac-[Nva]CYNN[Tle]E[Trp(7-aza)]ECP[Phg][Tle]-NH2) | < 5.52 | – |
| CCC[C@H](NC(C)=O)C(=O)N[C@H]1CSCc2cccc(c2)CSC[C@@H](C(=O)N2CCC[C@H]2C(=O)N[C@H](C(=O)N[C@H](C(N)=O)C(C)(C)C)c2ccccc2)NC(=O)[C@H](CCC(=O)O)NC(=O)[C@H](Cc2c[nH]c3ncccc23)NC(=O)[C@H](CCC(=O)O)NC(=O)[C@H](C(C)(C)C)NC(=O)[C@H](CC(N)=O)NC(=O)[C@H](CC(N)=O)NC(=O)[C@H](Cc2ccc(O)cc2)NC1=O [Compound R3127, [mXylyl(2,10)]Ac-Nvl-C-Y-N-N-Tbg-E-azaTrp-E-C-P-Pha-Tbg-NH2] (Ac-[Nva]CYNN[Tle]E[Trp(7-aza)]ECP[Phg][Tle]-NH2; linker 2-10 via mXylylene) | < 4.12 | – |
| CCC[C@H](NC(C)=O)C(=O)N[C@@H](CS)C(=O)N[C@@H](Cc1ccc(O)cc1)C(=O)N[C@@H](CC(N)=O)C(=O)N[C@@H](CC(N)=O)C(=O)N[C@H](C(=O)N[C@@H](CCC(=O)O)C(=O)N[C@@H](CS)C(=O)N[C@@H](CCC(=O)O)C(=O)N[C@@H](Cc1ccc(O)cc1)C(=O)N1CCC[C@H]1C(=O)N[C@H](C(=O)N[C@H](C(N)=O)C(C)(C)C)c1ccccc1)C(C)(C)C [Compound R3128, Ac-Nvl-C-Y-N-N-Tbg-E-C-E-Y-P-Phg-Tbg-NH2] (Ac-[Nva]CYNN[Tle]ECEYP[Phg][Tle]-NH2) | < 4.00 | pIC50 [3]: < 4.00 |
| CCC[C@H](NC(C)=O)C(=O)N[C@H]1CSCc2cccc(c2)CSC[C@@H](C(=O)N[C@@H](CCC(=O)O)C(=O)N[C@@H](Cc2ccc(O)cc2)C(=O)N2CCC[C@H]2C(=O)N[C@H](C(=O)N[C@H](C(N)=O)C(C)(C)C)c2ccccc2)NC(=O)[C@H](CCC(=O)O)NC(=O)[C@H](C(C)(C)C)NC(=O)[C@H](CC(N)=O)NC(=O)[C@H](CC(N)=O)NC(=O)[C@H](Cc2ccc(O)cc2)NC1=O [Compound R3129, [mXylyl(2,8)]Ac-Nvl-C-Y-N-N-Tbg-E-C-E-Y-P-Phg-Tbg-NH2] (Ac-[Nva]CYNN[Tle]ECEYP[Phg][Tle]-NH2; linker 2-8 via mXylylene) | < 4.00 | pIC50 [3]: < 4.00 |
| CCC[C@H](NC(=O)[C@@H]1CSCc2cccc(c2)CSC[C@H](NC(=O)[C@H](CCC)NC(C)=O)C(=O)N[C@@H](c2ccccc2)C(=O)N[C@@H]([C@@H](C)O)C(=O)N[C@@H](Cc2c[nH]c3ccccc23)C(=O)N[C@@H](Cc2nnn[nH]2)C(=O)N[C@@H](Cc2ccc(O)cc2)C(=O)N(C)[C@@H](CO)C(=O)N[C@@H](Cc2c[nH]cn2)C(=O)N1)C(N)=O [Compound R3131, [mXylyl(2,10)]Ac-Nvl-C-Phg-T-W-Asp(T)-Y-(N-Me)S-H-C-Nvl-NH2] (Ac-[Nva]C[Phg]TW[Ala(1H-tetrazol-5-yl)]Y[NMeS]HC[Nva]-NH2; linker 2-10 via mXylylene) | < 4.00 | pIC50 [4]: < 4.00 |
| CCC[C@H](NC(=O)[C@@H]1CSCc2cccc(c2)CSC[C@H](NC(=O)[C@H](CCC)NC(C)=O)C(=O)N[C@@H](c2ccccc2)C(=O)N[C@@H]([C@@H](C)O)C(=O)N[C@H](Cc2c[nH]c3ccccc23)C(=O)N[C@@H](CCC(=O)O)C(=O)N[C@@H](Cc2ccc(O)cc2)C(=O)N(C)[C@@H](CO)C(=O)N[C@@H](Cc2c[nH]cn2)C(=O)N1)C(N)=O [Compound R3132, [mXylyl(2,10)]Ac-Nvl-C-Phg-T-(D-Trp)-E-Y-(N-Me)S-H-C-Nvl-NH2] (Ac-[Nva]C[Phg]T[dW]EY[NMeS]HC[Nva]-NH2; linker 2-10 via mXylylene) | < 4.00 | pIC50 [4]: < 4.00 |
| CCC[C@H](NC(=O)[C@@H]1CSCc2cccc(c2)CSC[C@H](NC(=O)[C@H](CCC)NC(C)=O)C(=O)N[C@@H](c2ccccc2)C(=O)N[C@H](C)C(=O)N[C@@H](Cc2c[nH]c3ncccc23)C(=O)N[C@@H](CCC(=O)O)C(=O)N[C@@H](Cc2ccc(O)cc2)C(=O)N(C)[C@@H](CO)C(=O)N[C@@H](Cc2c[nH]cn2)C(=O)N1)C(N)=O [Compound R3133, [mXylyl(2,10)]Ac-Nvl-C-Phg-(D-Ala)-azaTrp-E-Y-(N-Me)S-H-C-Nvl-NH2] (Ac-[Nva]C[Phg][dA][Trp(7-aza)]EY[NMeS]HC[Nva]-NH2; linker 2-10 via mXylylene) | < 4.12 | – |
| CCC[C@H](NC(=O)[C@@H]1CSCc2cccc(c2)CSC[C@H](NC(=O)[C@H](CCC)NC(C)=O)C(=O)N[C@@H](c2ccccc2)C(=O)N[C@@H]([C@@H](C)O)C(=O)N[C@@H](Cc2c[nH]c3ncccc23)C(=O)N[C@@H](CCC(=O)O)C(=O)N[C@@H](Cc2cccc(Cl)c2)C(=O)N(C)[C@@H](CO)C(=O)N[C@@H](C)C(=O)N1)C(N)=O [Compound R3134, [mXylyl(2,10)]Ac-Nvl-C-Phg-T-azaTrp-E-(3-Cl-Phe)-(N-Me)S-A-C-Nvl-NH2] (Ac-[Nva]C[Phg]T[Trp(7-aza)]E[Phe(3-Cl)][NMeS]AC[Nva]-NH2; linker 2-10 via mXylylene) | < 5.30 | – |
| CCC[C@H](NC(=O)[C@@H]1CSCc2cccc(c2)CSC[C@H](NC(=O)[C@H](CCC)NC(C)=O)C(=O)N[C@@H](c2ccccc2)C(=O)N[C@@H]([C@@H](C)O)C(=O)N[C@@H](Cc2c[nH]c3ncccc23)C(=O)N[C@@H](CCC(=O)O)C(=O)N[C@@H](Cc2ccc(O)cc2)C(=O)N(C)[C@@H](CO)C(=O)N[C@H](C)C(=O)N1)C(N)=O [Compound R3135, [mXylyl(2,10)]Ac-Nvl-C-Phg-T-azaTrp-E-Y-(N-Me)S-(D-Ala)-C-Nvl-NH2] (Ac-[Nva]C[Phg]T[Trp(7-aza)]EY[NMeS][dA]C[Nva]-NH2; linker 2-10 via mXylylene) | < 4.60 | – |
| CC(=O)N[C@H]1CSCc2cccc(c2)CSC[C@@H](C(=O)N[C@@H](CC(=O)O)C(=O)N[C@H](C(=O)N[C@@H](Cc2ccc(O)cc2)C(=O)N[C@@H](Cc2c[nH]c3ccccc23)C(=O)N[C@@H](CCC(=O)O)C(=O)N[C@@H](Cc2ccccc2)C(N)=O)C(C)(C)C)NC(=O)[C@H](Cc2ccccc2)NC(=O)[C@H](CCCNC(=N)N)NC(=O)[C@H](CCC(=O)O)NC(=O)[C@H](C(C)C)NC1=O [Compound R3138, [mXylyl(1,6)]Ac-C-V-E-R-F-C-D-Tbg-Y-W-E-F-NH2] (Ac-CVERFCD[Tle]YWEF-NH2; linker 1-6 via mXylylene) | 7.06 | – |
| CC(=O)N[C@H]1CSCc2cccc(c2)CSC[C@@H](C(=O)N[C@@H](CC(=O)O)C(=O)N[C@H](C(=O)N[C@@H](Cc2ccc(O)cc2)C(=O)N[C@@H](Cc2c[nH]c3ccccc23)C(=O)N[C@@H](CCC(=O)O)C(=O)N[C@@H](Cc2ccccc2)C(N)=O)C(C)(C)C)NC(=O)[C@H](Cc2ccccc2)NC(=O)[C@H](CCCNC(=N)N)NC(=O)[C@H](CCC(=O)O)NC(=O)[C@H](C(C)(C)C)NC1=O [Compound R3139, [mXylyl(1,6)]Ac-C-Tbg-E-R-F-C-D-Tbg-Y-W-E-F-NH2] (Ac-C[Tle]ERFCD[Tle]YWEF-NH2; linker 1-6 via mXylylene) | 7.01 | – |
| CC(=O)N[C@H]1CSCc2cccc(c2)CSC[C@@H](C(=O)N[C@@H](CC(=O)O)C(=O)N[C@H](C(=O)N[C@@H](Cc2ccc(O)cc2)C(=O)N[C@@H](Cc2c[nH]c3ccccc23)C(=O)N[C@@H](CCC(=O)O)C(=O)N[C@@H](Cc2ccc(O)cc2)C(=O)N2CCC[C@H]2C(N)=O)C(C)C)NC(=O)[C@H](Cc2ccccc2)NC(=O)[C@H](CCCNC(=N)N)NC(=O)[C@H](CCC(=O)O)NC(=O)[C@H](C(C)C)NC1=O [Compound R3140, [mXv1v1(1,6)]Ac-C-V-E-R-F-C-D-V-Y-W-E-Y-P-NH2] | 7.75 | – |
| CC(=O)N[C@H]1CSCc2cccc(c2)CSC[C@@H](C(=O)N[C@@H](CC(=O)O)C(=O)N[C@H](C(=O)N[C@@H](Cc2ccc(O)cc2)C(=O)N[C@@H](Cc2c[nH]c3ccccc23)C(=O)N[C@@H](CCC(=O)O)C(=O)N[C@@H](Cc2ccccc2)C(=O)N2CCC[C@H]2C(N)=O)C(C)C)NC(=O)[C@H](Cc2ccccc2)NC(=O)[C@H](CCCNC(=N)N)NC(=O)[C@H](CCC(=O)O)NC(=O)[C@H](C(C)C)NC1=O [Compound R3141, [mXylyl(1,6)]Ac-C-V-E-R-F-C-D-V-Y-W-E-F-P-NH2] (Ac-CVERFCDVYWEFP-NH2; linker 1-6 via mXylylene) | 7.61 | – |
